Test [1] relates to EV71-2231. Kind of test: plaque reduction assay, EV71-2231. Type of test: cell-based, Enterovirus 71 (EV71). The conditions noted are these: Enterovirus A, vero cells, plaques counted after 96 hours at 35° C. The text has this:
(§1) Enterovirus 71 (EV71) isolates were obtained from Chang Gung Children's Hospitals (Taipei, Taiwan) and National Cheng Kung University Hospital (Tainan, Taiwan). EV71-2231 and EV71-1743 were isolated from throat swabs. EV71-2086 was isolated from the skin lesion of an implicated HFMD (hand, foot, and mouth disease) patient. EV71-4643 was a clinical isolate obtained from the throat swabs of a patient with encephalitis). BrCr, the prototype of EV71, was obtained from the American Type Culture Collection (ATCC Accession No. VR 784). Vero cells (ATCC Accession No. CCL-81) were used for virus isolation and propagation.
(§2) The antiviral activity of a number of imidazolidinone compounds was determined by a standard plaque reduction assay as described in Otto et al., Antimicrobial Agents & Chemotherapy, 1985, 27:883-886.
(§3) A compound to be tested was serially diluted and included in the agar-medium overlay. Plates were incubated at 35° C. for 96 hours. The plaques were stained with crystal violet and counted.
(Plaque reduction counts the foci of infection that form in a cell layer.)

Test [2] relates to EV71-4643. Kind of test: plaque reduction assay, EV71-4643. The conditions noted are these: Enterovirus A, vero cells, plaques counted after 96 hours at 35° C. Type of test: cell-based, Enterovirus 71 (EV71).
From the text: as §1, §2, §3

What is called IC50 is the concentration that inhibits the measured activity by half. Read a high IC50 as lower potency.

On to `CCO/N=C/c1ccc(OCC[C@H](C)CCN2CCN(c3ccncc3)C2=O)cc1` [Compound 7, 4-[(R)-3-methyl-5-(2-oxo-3-pyridin-4-yl-imidazolidin-1-yl)-pentyloxy]-benzaldehyde O-ethyl-oxime], for which the IC50 in test [1] and in test [2] was no more than 0.0381 µM each time.
As to `CCO/N=C/c1ccc(OCCC(C)(C)CCN2CCN(c3ccncc3)C2=O)cc1` [Compound 6, 4-[3,3-dimethyl-5-(2-oxo-3-pyridin-4-yl-imidazolidin-1-yl)-pentyloxy]-benzaldehyde O-ethyl-oxime], the IC50 in test [1] and in test [2] was no more than 0.0381 µM in each case.
Turning to `CCO/N=C/c1ccc(OCC[C@@H](C)CCN2CCN(c3ccncc3)C2=O)cc1` [Compound 8, 4-[(S)-3-methyl-5-(2-oxo-3-pyridin-4-yl-imidazolidin-1-yl)-pentyloxy]-benzaldehyde O-ethyl-oxime], the half-maximal inhibitory concentration (IC50) in test [1] and in test [2] was no more than 0.0381 µM in each case.
`CCO/N=C/c1ccc(OCCC(C)CCN2CCN(c3ccncc3)C2=O)cc1` (centres unmarked) [Compound 5, 4-[3-methyl-5-(2-oxo-3-pyridin-4-yl-imidazolidin-1-yl)-pentyloxy]-benzaldehyde O-ethyl-oxime]: the IC50 in test [1] and in test [2] was no more than 0.0381 µM throughout.

The record behind these values is patent publication US7259174B2, “Imidazolidinone compounds” (National Health Research Institutes, priority 2004, dated 2007).
